Assays:
β-adrenergic = conditions: L-form versus D-enantiomer; cited from earlier work
[1] = system: potassium-depolarized rat aorta; conditions: in vitro; cited from earlier work
[2] = system: K+-depolarized isolated guinea pig ileal segment; test: Calcium antagonism, guinea pig ileum (in vitro); conditions: reference agents, K+-depolarized ileal segment in Ca-free physiological salt solution, 37° C., added calcium 20 μg/ml CaCl; for IC100: Cavia porcellus, read-out: ED100 (inhibition of contractile response to added calcium)
From the text: Calcium Antagonism, Guinea Pig Ileum (in Vitro):

Row | Structure (SMILES) | IC100 [2] [µg/mL] | further results
1 | CC(C)NC[C@H](O)COc1cccc2ccccc12 |  | potency relative to the D-enantiomer (β-adrenergic): 100 times
2 | CCOC(=O)C1=C(COCCN)NC(C)=C(C(=O)OC)C1c1ccccc1Cl (single isomer, unassigned; isomer 3) [(−) isomer, 3-ethyl 5-methyl (−)-2-[2-aminoethoxy)methyl]-4-(2-chlorophenyl)-1,4-dihydro-6-methyl-3,5-pyridine dicarboxylate] |  | activity relative to the racemic mixture in antagonizing calcium-induced constriction [1]: twice as active as the racemic mixture
3 | C(=C\c1ccccc1)/CN1CCN(C(c2ccccc2)c2ccccc2)CC1 [cinnazrizine] |  | ED100 (inhibition of contractile response to added calcium) [2]: 1 µg/mL
4 | CN1CCC(=C2c3ccccc3C=Cc3ccccc32)CC1 [cyproheptadine] | 0.025 | 
5 | COc1ccc([C@@H]2Sc3ccccc3N(CCN(C)C)C(=O)[C@@H]2OC(C)=O)cc1 [diltiazem] | 0.01 | 
6 | CN(C)CCOC(c1ccccc1)c1ccccc1 [diphenhydramine] | 1 | 
7 | Fc1ccc(C(c2ccc(F)cc2)N2CCN(C/C=C/c3ccccc3)CC2)cc1 [flunarizine] | 0.1 | 
8 | CC(C)[N+]1(C)[C@@H]2CC[C@H]1CC(OC(=O)C(CO)c1ccccc1)C2.[Br-] (stereo partly shown) [ipratropium bromide] |  | ED100 (inhibition of contractile response to added calcium) [2]: > 2 µg/mL
9 | CC(COc1ccccc1)NC(C)C(O)c1ccc(O)cc1 (stereo not shown) [isoxuprine] |  | ED100 (inhibition of contractile response to added calcium) [2]: 4 µg/mL
10 | COc1ccc(CN(CCN(C)C)c2ccccn2)cc1 [mepyramine] | > 5 | 
11 | COc1ccc(Cc2nccc3cc(OC)c(OC)cc23)cc1OC [papaverine] | 4 | 
12 | CC(CN1c2ccccc2Sc2ccccc21)N(C)C (stereo not shown) [promethazine] | 0.25 | 
13 | CC(C)NCC(O)COc1cccc2ccccc12 (stereo not shown) [propranolol] | 4 | 

Reference: US6753338B2, “Methods for treating hypertension, angina, and congestive heart failure using of optically pure (-) amlodipine” (Sepracor Inc., priority 1991, dated 2004)
